US7772268B2, “Diacyl indazole derivatives as lipase and phospholipase inhibitors” (Sanofi-Aventis, priority 2005, dated 2010)

Key:
endothelial lipase (EL) = target: T1, endothelial lipase (EL) (Homo sapiens, UniProt Q9Y5X9); assay: EL inhibition assay (conditioned medium of recombinant cell lines, Bodipy phospholipid substrate); assay type: biochemical; conditions: EL from conditioned medium (CHO, HEK293); 37° C., 60 minutes
T1 construct: made in house; host or cells: recombinant cell lines CHO, HEK293 (conditioned medium, concentrated)
T1 sequence (Q9Y5X9 21-500): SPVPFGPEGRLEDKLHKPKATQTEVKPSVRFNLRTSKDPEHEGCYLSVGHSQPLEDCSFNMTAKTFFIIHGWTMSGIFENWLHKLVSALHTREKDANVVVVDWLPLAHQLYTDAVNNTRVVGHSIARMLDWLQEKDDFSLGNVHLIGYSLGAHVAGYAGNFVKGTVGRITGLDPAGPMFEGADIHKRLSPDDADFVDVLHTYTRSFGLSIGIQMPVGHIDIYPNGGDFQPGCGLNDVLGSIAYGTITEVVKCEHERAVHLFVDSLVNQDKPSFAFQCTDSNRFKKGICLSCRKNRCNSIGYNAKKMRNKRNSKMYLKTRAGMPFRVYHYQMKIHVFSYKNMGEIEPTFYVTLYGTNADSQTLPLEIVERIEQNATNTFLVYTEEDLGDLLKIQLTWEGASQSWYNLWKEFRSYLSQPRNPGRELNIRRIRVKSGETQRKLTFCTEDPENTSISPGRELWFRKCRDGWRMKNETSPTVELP
Source text: EL is released as secretory protein in high concentration into cell culture medium (conditioned medium) by recombinant cell lines (CHO, HEK293). This is employed as enzyme solution after concentration.
The phospholipase-specific substrate 1,2-bis(4,4-difluoro-5,7-dimethyl-4-bora-3a,4a-diaza-s-indacene-3-undecanoyl)-sn-glycero-3-phosphocholine, (manufacturer Molecular Probes) is used to characterize the enzymatic activity of endothelial lipase and the effect of inhibitors. Hydrolysis of the A1 ester linkage of this phospholipid by the enzyme liberates the fluorescent dye Bodipy which can be detected after separation by thin-layer chromatography on an HPTLC plate (silica gel 60, Merck) or directly in the reaction vessel by measuring the fluorescence.
The substrate solution is prepared by taking up 100 μg of 1,2-bis(4,4-difluoro-5,7-dimethyl-4-bora-3a,4a-diaza-s-indacene-3-undecanoyl)-sn-glycero-3-phospho-choline (manufacturer Molecular Probes), 2.4 mg of tripalmitin (Sigma) and 7.9 mg of DOP—choline (1,2-dioleoyl-sn-glycero-3-phosphocholine) in 393 μl of chloroform and then transferring 157 μl into a fresh reaction vessel. After evaporation of the solvent, the lipid mixture is dissolved in 4 ml of 200 mM TRIS-HCl, 150 mM sodium chloride, pH=7.4, by sonication twice. The subsequent enzymic reaction takes place at 37° C. for 60 minutes. For this purpose, 45 μl of the substrate solution are incubated with 1 μl of inhibitor of appropriate concentration (dissolved in DMSO, pure DMSO solution is used as control) and 5 μl of enzyme solution (conditioned medium). Then 3 μl of the assay mixture are loaded onto an HPTLC plate (silica gel 60, Merck), and the liberated fluorescent dye is separated for detection with an eluent (diethyl ether:petroleum benzene:acetic acid [78:22:1]). After evaporation of the eluent, the plate is read in a fluorescence scanner. An increased release of the fluorescent dye in the uninhibited reaction is to be observed as a measure of the enzymic activity.
The enzymatic activity is reduced as a function of the inhibitor concentration used, and the inhibitor concentration at which a half-maximum enzymatic activity is observed is called IC50.

[1] = target: T2, hormone sensitive lipase, HSL (Rattus norvegicus, UniProt P15304); assay: HSL inhibition assay (partially purified HSL, [3H]trioleoylglycerol substrate); assay type: biochemical; conditions: partially purified HSL from rat fat cells; 37° C., 30 min
T2 construct: Isolated rat fat cells are obtained from epididymal adipose tissue; from tissue; host or cells: rat epididymal adipose tissue (isolated fat cells, Wistar rats)
T2 sequence (P15304 301-1068 limits assumed): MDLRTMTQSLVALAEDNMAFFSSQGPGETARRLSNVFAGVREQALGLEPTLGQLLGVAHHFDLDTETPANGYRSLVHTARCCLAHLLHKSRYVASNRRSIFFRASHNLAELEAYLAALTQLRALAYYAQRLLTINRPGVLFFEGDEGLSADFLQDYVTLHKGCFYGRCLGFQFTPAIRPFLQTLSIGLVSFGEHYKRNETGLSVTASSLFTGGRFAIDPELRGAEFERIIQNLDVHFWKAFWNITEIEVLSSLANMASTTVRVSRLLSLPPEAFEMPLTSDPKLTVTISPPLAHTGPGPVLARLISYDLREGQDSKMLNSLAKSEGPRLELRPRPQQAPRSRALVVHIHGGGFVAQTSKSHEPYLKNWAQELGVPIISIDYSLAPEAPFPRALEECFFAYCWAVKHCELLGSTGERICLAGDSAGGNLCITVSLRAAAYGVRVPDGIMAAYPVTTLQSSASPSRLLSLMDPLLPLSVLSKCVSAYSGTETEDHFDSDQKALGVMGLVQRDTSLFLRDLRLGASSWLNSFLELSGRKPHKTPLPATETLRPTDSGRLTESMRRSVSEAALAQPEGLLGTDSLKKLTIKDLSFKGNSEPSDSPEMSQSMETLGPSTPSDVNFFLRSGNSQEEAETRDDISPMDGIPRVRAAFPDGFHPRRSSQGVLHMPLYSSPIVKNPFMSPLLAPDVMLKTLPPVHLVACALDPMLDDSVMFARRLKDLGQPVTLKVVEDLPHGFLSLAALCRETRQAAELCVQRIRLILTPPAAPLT
Procedure: Preparation of the partially purified HSL:
Isolated rat fat cells are obtained from epididymal adipose tissue from untreated male rats (Wistar, 220-250 g) by collagenase treatment in accordance with published methods (e.g. S, Nilsson et al., Anal. Biochem. 158, 1986, 399-407; G. Fredrikson et al., J. Biol. Chem. 256, 1981, 6311-6320; H. Tornquist et al., J. Biol. Chem. 251, 1976, 813-819). The fat cells from 10 rats are washed three times by flotation with 50 ml of homogenization buffer ([…] Tris/HCl, pH 7.4, 0.25 M sucrose, 1 mM ETDA, 1 mM DTT, 10 μg/ml leupeptin, 10 μg/ml antipain, 20 μg/ml pepstatin) each time and finally taken up in 10 ml of homogenization buffer. The fat cells are homogenized in a Teflon-in-glass homogenizer (Braun-Melsungen) by 10 strokes at 1500 rpm and 15° C. The homogenate is centrifuged (Sorvall SM24 tubes, 5000 rpm, 10 min, 4° C.). The subnatant between the layer of fat at the top and the pellet is removed and the centrifugation is repeated. The subnatant resulting therefrom is centrifuged again (Sorvall SM24 tubes, 20 000 rpm, 45 min, 4° C.). […] After incubation at 4° C. for 60 min (shaking at intervals of 15 min), the mixture is centrifuged (Sorvall SM24 tubes, 3000 rpm, 10 min, 4° C.). The supernatant is adjusted to pH 5.2 by adding glacial acetic acid and is incubated at 4° C. for 30 min. The precipitates are collected by centrifugation (Sorvall SS34, 12 000 rpm, 10 min, 4° C.) and suspended in 2.5 ml of 20 mM Tris/HCl, pH 7.0, 1 mM EDTA, 65 mM NaCl, 13% sucrose, 1 mM DTT, 10 μg/ml leupeptin/pepstatin/antipain. The suspension is dialyzed against 25 mM Tris/HCl, pH 7.4, 50% glycerol, 1 mM DTT, 10 μg/ml leupeptin, pepstatin, antipain at 4° C. overnight and then loaded onto a hydroxiapatite column (0.1 g per 1 ml of suspension, equilibrated with 10 mM potassium phosphate, pH 7.0, 30% glycerol, 1 mM DTT). The column is washed with four volumes of equilibration buffer at a flow rate of 20 to 30 ml/h. The HSL is eluted with one volume of equilibration buffer containing 0.5 M potassium phosphate and then dialyzed (see above) and concentrated 5- to 10-fold by ultrafiltration (Amicon Diaflo PM 10 Filter) at 4° C. The partially purified HSL can be stored at −70° C. for 4 to 6 weeks.
To prepare the substrate, 25-50 μCi of [3H]trioleoylglycerol (in toluene), 6.8 μmol of unlabeled trioleoylglycerol and 0.6 mg of phospholipids (phosphatidylcholine/phosphatidylinositol 3:1 w/v) are mixed, dried with N2 and then taken up in 2 ml of 0.1 M KPi (pH 7.0) by ultrasound treatment (Branson 250, microtip, setting 1-2, 2×1 min with an interval of 1 min). After addition of 1 ml of KPi and renewed ultrasound treatment (4×30 sec on ice with intervals of 30 sec), 1 ml of 20% BSA (in KPi) is added (final concentration of trioleoylglycerol 1.7 mM). For the reaction, 100 μl of substrate solution are pipetted into 100 μl of HSL solution (HSL prepared as above, diluted in 20 mM KPi, pH 7.0, 1 mM EDTA, 1 mM DTT, 0.02% BSA, 20 μg/ml pepstatin, 10 μg/ml leupeptin) and incubated at 37° C. for 30 min. Addition of 3.25 ml of methanol/chloroform/heptane (10:9:7) and of 1.05 ml of 0.1 M K2CO3, 0.1 M boric acid (pH 10.5) is followed by thorough mixing and finally centrifugation (800×g, 20 min). After phase separation, one equivalent of the upper phase (1 ml) is removed and the radioactivity is determined by liquid scintillation measurement.
Substances are normally tested in four independent mixtures. The inhibition of the HSL enzymatic activity by a test substance is determined by comparing with an uninhibited control reaction. The IC50 is calculated from an inhibition plot with at least 10 concentrations of the test substance. The GRAPHIT, Elsevier-BIOSOFT software package is used to analyze the data.

Cc1ccccc1CNC(=O)n1c(=O)c2ccccc2n1C(=O)N1CCC(C)CC1 [Example 12, 1-(4-Methylpiperidine-1-carbonyl)-3-oxo-1,3-dihydroindazole-2-carboxylic acid 2-methylbenzylamide]
IC50 (endothelial lipase (EL)): 0.22 µM

O=C(N1CCN(c2ccccc2)CC1)n1c(=O)c2ccc(F)cc2n1C(=O)N1CCN(c2ccccc2)CC1 [Example 1b, 6-fluoro-1,2-bis(4-phenylpiperazine-1-carbonyl)-1,2-dihydroindazol-3-one]
IC50 [1]: 0.62 µM

O=C(Oc1nn(C(=O)N2CCc3sccc3C2)c2cc(F)ccc12)N1CCc2sccc2C1 [Example 2, 1-(6,7-Dihydro-4H-thieno[3,2-c]pyridine-5-carbonyl)-6-fluoro-1H-indazol-3-yl 6,7-dihydro-4H-thieno[3,2-c]pyridine-5-carboxylate]
IC50 [1]: 1.11 µM

CC1CCN(C(=O)Oc2nn(C(=O)N3CCC(C(F)(F)F)CC3)c3cc(N)ccc23)CC1 [Example 14, 6-Amino-1-(4-trifluoromethylpiperidine-1-carbonyl)-1H-indazol-3-yl 4-methyl-piperidine-1-carboxylate]
IC50 [1]: 1 µM

O=C(NCc1ccccc1)Oc1nn(C(=O)NCc2ccccc2)c2cc(Cl)ccc12 [Example 11b, 1-benzylcarbamoyl-6-chloro-1H-indazol-3-yl benzyl carbamate]
IC50 (endothelial lipase (EL)): 1.47 µM

Cc1cc(O)nc2c1c(OC(=O)N1CCC(C)CC1)nn2C(=O)N1CCC(C(F)(F)F)CC1 [Example 16, 6-Hydroxy-4-methyl-1-(4-trifluoromethylpiperidine-1-carbonyl)-1H-pyrazolo-[3,4-b]pyridin-3-yl 4-methylpiperidine-1-carboxylate]
IC50 [1]: 0.58 µM

Cc1ccccc1CNC(=O)n1c(=O)c2ccccc2n1C(=O)NCc1ccccc1C [Example 13, 3-Oxo-3H-indazole-1,2-dicarboxylic acid bis(2-methylbenzylamide)]
IC50 (endothelial lipase (EL)): 0.84 µM

Cc1cc(O)nc2c1c(OC(=O)N1CCC(C(F)(F)F)CC1)nn2C(=O)N1CCN(C)CC1 [Example 15, 6-Hydroxy-4-methyl-1-(4-methylpiperazine-1-carbonyl)-1H-pyrazolo[3,4-b]pyridin-3-yl 4-trifluoromethylpiperidine-1-carboxylate]
IC50 [1]: 1.5 µM

O=C(Oc1nn(C(=O)N2CCN(c3ccccc3)CC2)c2cc(F)ccc12)N1CCN(c2ccccc2)CC1 [Example 1a, 6-Fluoro-1-(4-phenylpiperazine-1-carbonyl)-1H-indazol-3-yl 4-phenylpiperazine-1-carboxylate]
IC50 [1]: 0.32 µM

CC1CCN(C(=O)Oc2nn(C(=O)N3CCC(C)CC3)c3cc(F)ccc23)CC1 [Example 9b, 6-fluoro-1-(4-methylpiperidine-1-carbonyl)-1H-indazol-3-yl 4-methylpiperidine-1-carboxylate]
IC50 [1]: 1.15 µM

6-Chloro-3-oxo-3H-indazole-1,2-dicarboxylic acid bisbenzylamide [Example 11a]
IC50 (endothelial lipase (EL)): 0.26 µM

6-Chloro-3-oxo-3H-indazole-1,2-dicarboxylic acid bishexylamide [Example 10a]
IC50 (endothelial lipase (EL)): 0.05 µM

CCCCCCNC(=O)Oc1nn(C(=O)NCCCCCC)c2cc(Cl)ccc12 [Example 10b, 6-chloro-1-hexylcarbamoyl-1H-indazol-3-yl hexylcarbamate]
IC50 (endothelial lipase (EL)): 0.06 µM
